Where no end group is shown, it is not given here.
Legend:
[1] = system: macrophages (PMA-induced U937 cells); experiment: flow cytometry macrophage apoptosis test (AV-FITC/PI); assay type: cell-based, Human; conditions: 24 h; Adalimumab 50 μg/mL, mPEG-SC20k-HM-3 13.5 μmol/L
Procedure: Human U937 cells are added to a 6-well plate (1.5×10^5 cells/mL), PMA (25 ng/mL) is added to perform induction for 48 h for differentiation into macrophages, and the macrophages are added to the positive drug Adalimumab group (50 μg/mL), the HM-3 control group (13.5 μmol/L), the mPEG-SC20k-HM-3 group (13.5 μmol/L), isovolumetric PBS is added to the blank group and the model group, and the cells are incubated in a CO2 incubator at 37° C. for 24 h. For the H2O2 group (3%, 20 μL/mL volume) test, hydrogen peroxide is added in the first half hour to normal cells for apoptosis induction control.
1000 g of solution is centrifuged for 5 min, and supernatant is discarded. Washing is performed once with PBS.
The apoptosis is tested on the flow cytometer according to the instructions of the AV-FITC/PI apoptosis kit.

TNF-α = experiment: immunohistochemistry of TNF-α in ankle joints, CIA transgenic TNF-luc mice; assay type: in vivo, BALB/c transgenic TNF-luc mice; conditions: Adalimumab 8 mg/kg, mPEG-SC20k-HM-3 20 mg/kg
Procedure: Determining criteria: The experimental results are determined based on the proportion of positive cells in all tissue cells and the staining intensity of positive cells: A: scoring is performed based on the number of chromogenic cells, 1 point is given when the proportion of the number of positive cells is less than ⅓, 2 points are given when the proportion of the number of positive cells is ⅓-⅔, and 3 points are given when the proportion of the number of positive cells is greater than or equal to ⅔. B: Based on the color depth of cells, 0 point is given when no cells have positive reaction, 1 point is given when cells are light yellow, 2 points are given when the cells are light brown, and 3 points are given when the cells are dark brown. Point product=A×B. The result is expressed in point product.

[2] = system: λ-carrageenan acute inflammation; experiment: acute toe swelling in carrageenan-induced transgenic TNF-luc mice; assay type: in vivo, BALB/c transgenic TNF-luc mice; conditions: Adalimumab 8 mg/kg, mPEG-SC20k-HM-3 20 mg/kg sc
Procedure: Before modeling, 8 animals are randomly divided into 4 groups (n=2), a normal group, a model group, a positive drug group and a test treatment group. One hour before modeling, the normal group and the model group are hypodermically injected with normal saline (0.2 mL/20 g of body weight) respectively; the positive drug group is hypodermically injected with Adalimumab (8 mg/kg of body weight), 15 d/time, once; and the test treatment group is hypodermically injected with mPEG-SC20k-HM-3 (20 mg/kg of body weight), 2 d/time, twice. The initial ankle width, foot palm width and toe thickness of the left foot are measured as initial values.
Modeling starts at hour 0, 50 μL of 1% carrageenan is hypodermically injected into the bottom of left toe of transgenic TNF-luc mice, and the ankle swelling degree, foot palm swelling degree and toe swelling degree of each group of mice are measured with a vernier caliper at […], hour 1, hour 3, hour 5, hour 7, hour 9, hour 12, hour 24, hour 48, hour 72 and hour 96 respectively. Method for calculating toe swelling degree:
Swelling degree of left ankle (cm)=swelling thickness of left ankle during measurement−thickness of left ankle during initial measurement.
Swelling degree of left foot palm (cm)=swelling thickness of left foot palm during measurement−thickness of left foot palm during initial measurement.
Swelling degree of left toe (cm)=swelling thickness of left toe during measurement−thickness of left toe during initial measurement.

Adalimumab [reference compound] was tested, and the “rate of early apoptosis of macrophages” value [1] was 14.2%, the “rate of late apoptosis of macrophages” value [1] was 15.2% and the “immunohistochemical score of TNF-α in ankle joint cavity” value (TNF-α) was 0.160±0.109. The left ankle swelling ([2]; 1 h) was 0.027 ± 0.018 cm, the “left foot (palm) swelling” value ([2]; 1 h) was 0.042 ± 0.035 cm and the left toe swelling ([2]; 1 h) was 0.094 ± 0.054 cm. For the same substance, the left ankle swelling ([2]; 3 h) was 0.008 ± 0.048 cm, the “left foot (palm) swelling” value ([2]; 3 h) was 0.071 ± 0.016 cm and the left toe swelling ([2]; 3 h) was 0.115 ± 0.018 cm. The left ankle swelling ([2]; 5 h) was 0.067 ± 0.010 cm, the “left foot (palm) swelling” value ([2]; 5 h) was 0.092 ± 0.014 cm and the left toe swelling ([2]; 5 h) was 0.150 ± 0.028 cm. The left ankle swelling ([2]; 7 h) was 0.064 ± 0.006 cm, the “left foot (palm) swelling” value ([2]; 7 h) was 0.094 ± 0.011 cm and the left toe swelling ([2]; 7 h) was 0.126 ± 0.014 cm. For the same substance, the left ankle swelling ([2]; 9 h) was 0.045 ± 0.004 cm, the “left foot (palm) swelling” value ([2]; 9 h) was 0.088 ± 0.025 cm and the left toe swelling ([2]; 9 h) was 0.126 ± 0.021 cm. The left ankle swelling ([2]; 12 h) was 0.050 ± 0.003 cm, the “left foot (palm) swelling” value ([2]; 12 h) was 0.090 ± 0.031 cm and the left toe swelling ([2]; 12 h) was 0.114 ± 0.025 cm. For the same substance, the left ankle swelling ([2]; 24 h) was 0.086 ± 0.031 cm, the “left foot (palm) swelling” value ([2]; 24 h) was 0.132 ± 0.006 cm and the left toe swelling ([2]; 24 h) was 0.235 ± 0.134 cm. The left ankle swelling ([2]; 48 h) was 0.105 ± 0.075 cm, the “left foot (palm) swelling” value ([2]; 48 h) was 0.152 ± 0.074 cm and the left toe swelling ([2]; 48 h) was 0.264 ± 0.122 cm. For the same substance, the left ankle swelling ([2]; 72 h) was 0.096 ± 0.051 cm, the “left foot (palm) swelling” value ([2]; 72 h) was 0.150 ± 0.066 cm and the left toe swelling ([2]; 72 h) was 0.238 ± 0.113 cm. The left ankle swelling ([2]; 96 h) was 0.076 ± 0.034 cm, the “left foot (palm) swelling” value ([2]; 96 h) was 0.133 ± 0.061 cm and the left toe swelling ([2]; 96 h) was 0.174 ± 0.102 cm.
With “mPEG-SC20k-Ile-Val-Arg-Arg-Ala-Asp-Arg-Ala-Ala-Val-Pro-Gly-Gly-Gly-Gly-Arg-Gly-Asp ({mPEG‑SC 20k}-IVRRADRAAVPGGGGRGD) [polypeptide III, No. 3]” the “rate of early apoptosis of macrophages” value [1] was 28.0%, the “rate of late apoptosis of macrophages” value [1] was 14.7% and the “immunohistochemical score of TNF-α in ankle joint cavity” value (TNF-α) was 0.143±0.055. For the same substance, the left ankle swelling ([2]; 1 h) was 0.060 ± 0.045 cm, the “left foot (palm) swelling” value ([2]; 1 h) was 0.101 ± 0.027 cm and the left toe swelling ([2]; 1 h) was 0.132 ± 0.054 cm. For the same substance, the left ankle swelling ([2]; 3 h) was 0.079 ± 0.052 cm, the “left foot (palm) swelling” value ([2]; 3 h) was 0.092±0.054 cm and the left toe swelling ([2]; 3 h) was 0.114 ± 0.025 cm. For the same substance, the left ankle swelling ([2]; 5 h) was 0.117 ± 0.033 cm, the “left foot (palm) swelling” value ([2]; 5 h) was 0.125 ± 0.035 cm and the left toe swelling ([2]; 5 h) was 0.146 ± 0.003 cm. For the same substance, the left ankle swelling ([2]; 7 h) was 0.074 ± 0.014 cm, the “left foot (palm) swelling” value ([2]; 7 h) was 0.116 ± 0.034 cm and the left toe swelling ([2]; 7 h) was 0.174 ± 0.065 cm. For the same substance, the left ankle swelling ([2]; 9 h) was 0.061 ± 0.013 cm, the “left foot (palm) swelling” value ([2]; 9 h) was 0.086 ± 0.008 cm and the left toe swelling ([2]; 9 h) was 0.124 ± 0.014 cm. The left ankle swelling ([2]; 12 h) was 0.055 ± 0.018 cm, the “left foot (palm) swelling” value ([2]; 12 h) was 0.091 ± 0.004 cm and the left toe swelling ([2]; 12 h) was 0.113 ± 0.027 cm. The left ankle swelling ([2]; 24 h) was 0.066 ± 0.003 cm, the “left foot (palm) swelling” value ([2]; 24 h) was 0.107 ± 0.010 cm and the left toe swelling ([2]; 24 h) was 0.136 ± 0.011 cm. For the same substance, the left ankle swelling ([2]; 48 h) was 0.051±0.044 cm, the “left foot (palm) swelling” value ([2]; 48 h) was 0.105 ± 0.010 cm and the left toe swelling ([2]; 48 h) was 0.126 ± 0.031 cm. The left ankle swelling ([2]; 72 h) was 0.032±0.074 cm, the “left foot (palm) swelling” value ([2]; 72 h) was 0.101 ± 0.016 cm and the left toe swelling ([2]; 72 h) was 0.094±0.034 cm. The left ankle swelling ([2]; 96 h) was 0.032±0.042 cm, the “left foot (palm) swelling” value ([2]; 96 h) was 0.076±0.006 cm and the left toe swelling ([2]; 96 h) was 0.084±0.040 cm.

Source: patent US20220202912A1, “Polypeptides in Preparation of Drugs for Treatment or Prevention of Rheumatoid Arthritis” (priority 2011, published 2022)
